The text below walks through data of patent US8476255B2, “Histone deacetylase inhibitors” (Orchid Chemicals & Pharmaceuticals Limited, priority 2007, dated 2013).

Like-named read-outs stand apart in the source and are kept apart here.

Assay [1] concerns NCIH460 (lung) cells. The assay can be described thus: Anti-cancer screen (MTT), NCIH460. The conditions noted are these: Homo sapiens; for GI50: read-out: Cell growth inhibition NCIH460 (Lung) GI50; for LC50: read-out: Cell growth inhibition NCIH460 (Lung) LC50; for IC (TGI): read-out: Cell growth inhibition NCIH460 (Lung) TGI. Format: cell-based. Put shortly: (§1)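 A570 read-out after a 3 h MTT step and DMSO solubilisation; a separate plate measured at drug addition served as T0. Treatment lasted 48 h at five concentrations (0.01–100 μM) after 24 h attachment in DMEM/10% FBS; SAHA as standard.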

For assay [2], the system named is U251 (glioma) cells. The assay can be described thus: Anti-cancer screen (MTT), U251. The assay is classed as cell-based. The following applies: Homo sapiens; for GI50: read-out: Cell growth inhibition U251 (Glioma) GI50; for LC50 (concentration giving 50% net cell kill relative to the time-zero cell count): read-out: Cell growth inhibition U251 (Glioma) LC50; for IC (TGI): read-out: Cell growth inhibition U251 (Glioma) TGI. An outline of the steps: as §1

Assay [3] has as its system HCT 116 (colon) cells. The assay can be described thus: Anti-cancer screen (MTT), HCT 116. The assay is classed as cell-based. The following applies: Homo sapiens; for GI50: read-out: Cell growth inhibition HCT116 (Colon) GI50; for CC50: read-out: Cell growth inhibition HCT116 (Colon) LC50; for IC (TGI): read-out: Cell growth inhibition HCT116 (Colon) TGI. An outline of the steps: as §1

Assay [4] deals with HDAC (Mouse Liver Extract). Nature of the assay: HDAC inhibition assay using Boc-Lys(Ac)-AMC substrate. The following applies: mouse liver enzyme. The assay is classed as biochemical. An outline of the steps:
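Boc-Lys(Ac)-AMC substrate incubated with mouse liver extract as HDAC source, 5 min preincubation then 30 min at 37° C. Trypsin stop solution added (37° C., 15-30 min) to release AMC, read at ex 360/em 460 nm; buffer-only and substrate-only wells as blanks.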

In assay [5] the test system is NCIH460, HCT116 and U251 cells. The assay can be described thus: Anti-cancer screen, mean GI50 over cell lines. The following applies: read-out: Cell growth inhibition Mean GI50. Format: cell-based. Put shortly: as §1
Where [6] appears, read: NCI-H460, NCIH460, 48 hours, MTT.

As to `COc1ccc(/C=C(/C(=O)NCc2ccc(/C=C/C(=O)NO)cc2)c2ccccc2F)cc1OC` [Compound 78, (1E)-N-(4-(3-(Hydroxyamino)-3-oxoprop-1-enyl)benzyl)-2-(2-fluorophenyl)-3-(3,4-dimethoxyphenyl)acrylamide], in assay [1] (setting [6]), the GI50 came to 2 µM, the LC50 is above 100 µM and the IC (TGI) is above 100 µM. Further, in assay [2] (U-251, U251, 48 hours, MTT), the GI50 was determined as 1 µM, the LC50 (concentration giving 50% net cell kill relative to the time-zero cell count) is above 100 µM and the IC (TGI) was 8 µM. Moreover, in assay [3] (HCT-116, HCT116, 48 hours, MTT), the 50% growth inhibitory concentration (GI50) was 4 µM, the CC50 was above 100 µM and the IC (TGI) worked out at 30 µM. In addition, in assay [4], the “HDAC inhibition % (1 μM)” value was 87.6% and the “HDAC inhibition % (10 μM)” value came out at 91.3%. Also, in assay [5] (mean over cell lines), the GI50 was determined as 2.3 µM.

With `CSc1ccc(/C=C(/C(=O)NCCCCCCC(=O)NO)c2ccc(F)cc2)cc1` [Compound 84, 7-(2-(4-Fluorophenyl)-3-(4-methylthiophenyl)acrylamido)-N-hydroxy heptanamide], in assay [1] (setting [6]), the GI50 was found to be 2.3 µM, the 50% lethal concentration (LC50) is 70 µM and the IC (TGI) turned out to be 21 µM. For the same compound, in assay [2] (U-251, U251, 48 hours, MTT), the GI50 amounted to 4.2 µM, the LC50 (concentration giving 50% net cell kill relative to the time-zero cell count) amounted to 95 µM and the IC (TGI) was determined as 21 µM. In assay [3] (HCT-116, HCT116, 48 hours, MTT), the GI50 stood at 1.2 µM, the CC50 is above 100 µM and the IC (TGI) is 21 µM. In assay [4], the “HDAC inhibition % (1 μM)” value is recorded as 90.0%, the “HDAC inhibition % (10 μM)” value came out at 94.3% and the IC50 turned out to be 0.06 µM. The GI50 in assay [5] (mean over cell lines) was found to be 2.6 µM.

For `O=C(CCCCCCNC(=O)/C(=C\c1ccccc1)c1ccccc1)NO` [Compound 85, (2Z)-7-(2,3-Diphenylacrylamido)-N-hydroxy heptanamide], in assay [1] (setting [6]), the concentration for 50% growth inhibition (GI50) was found to be 3.3 µM, the median lethal concentration (LC50) was 75 µM and the IC (TGI) came to 25 µM. Further, in assay [2] (U-251, U251, 48 hours, MTT), the GI50 was 4.8 µM, the LC50 (concentration giving 50% net cell kill relative to the time-zero cell count) is 80 µM and the IC (TGI) stood at 27 µM. In assay [3] (HCT-116, HCT116, 48 hours, MTT), the concentration for 50% growth inhibition (GI50) came to 3.1 µM, the CC50 is above 100 µM and the IC (TGI) stood at 23 µM. Further, in assay [4], the “HDAC inhibition % (1 μM)” value was 79.3%, the “HDAC inhibition % (10 μM)” value amounted to 95.8% and the IC50 was found to be 0.38 µM. The GI50 in assay [5] (mean over cell lines) was 3.7 µM.

`CS(=O)(=O)c1ccc(/C=C(/C(=O)NCCCCCC(=O)NO)c2ccc(F)cc2)cc1` [Compound 87, 6-(2-(4-Fluorophenyl)-3-(4-methylsulfonylphenyl)acrylamido)-N-hydroxy hexanamide]: in assay [1] (setting [6]), the GI50 is above 100 µM, the LC50 is above 100 µM and the IC (TGI) is above 100 µM. In assay [2] (U-251, U251, 48 hours, MTT), the GI50 stood at 20 µM, the LC50 (concentration giving 50% net cell kill relative to the time-zero cell count) is above 100 µM and the IC (TGI) is above 100 µM. In addition, in assay [3] (HCT-116, HCT116, 48 hours, MTT), the GI50 turned out to be 44 µM, the CC50 was above 100 µM and the IC (TGI) is 88 µM. Besides, in assay [4], the “HDAC inhibition % (1 μM)” value came out at 43.6% and the “HDAC inhibition % (10 μM)” value was 81.6%. The GI50 in assay [5] (mean over cell lines) was above 100 µM.

Take `O=C(CCCCCNC(=O)/C(=C/c1ccccc1)c1ccccc1)NO` [Compound 88, 6-(2,3-Diphenylacrylamido)-N-hydroxy hexanamide]: in assay [1] (setting [6]), the GI50 came to 21 µM, the LC50 amounted to 91 µM and the IC (TGI) was determined as 57.5 µM. Moreover, in assay [2] (U-251, U251, 48 hours, MTT), the GI50 was found to be 7.8 µM, the LC50 (concentration giving 50% net cell kill relative to the time-zero cell count) was 78 µM and the IC (TGI) turned out to be 37.5 µM. For the same compound, in assay [3] (HCT-116, HCT116, 48 hours, MTT), the GI50 is 5 µM, the CC50 is above 100 µM and the IC (TGI) is 22.5 µM. In assay [4], the “HDAC inhibition % (1 μM)” value is recorded as 81.5% and the “HDAC inhibition % (10 μM)” value turned out to be 95.4%. For the same compound, the GI50 in assay [5] (mean over cell lines) was determined as 11.3 µM.

Turning to `O=C(CCCCCNC(=O)/C(=C/c1c(F)cc(F)cc1F)c1ccc(F)cc1)NO` [Compound 89, 6-(2-(4-Fluorophenyl)-3-(2,4,6-trifluorophenyl)acrylamido)-N-hydroxy hexanamide], in assay [1] (setting [6]), the GI50 amounted to 3 µM, the LC50 was found to be 45 µM and the IC (TGI) came to 13 µM. Also, in assay [2] (U-251, U251, 48 hours, MTT), the GI50 came to 4 µM, the LC50 (concentration giving 50% net cell kill relative to the time-zero cell count) was found to be 81 µM and the IC (TGI) is 6.7 µM. Besides, in assay [3] (HCT-116, HCT116, 48 hours, MTT), the GI50 worked out at 4 µM, the CC50 was found to be 83 µM and the IC (TGI) was determined as 10 µM. Besides, in assay [4], the “HDAC inhibition % (1 μM)” value is listed as 64.9%, the “HDAC inhibition % (10 μM)” value is given as 97.6% and the IC50 turned out to be 0.03 µM. Further, in assay [5] (mean over cell lines), the GI50 was 3.7 µM.

As for `CSc1ccc(/C=C(/C(=O)NCCCCCC(=O)NO)c2ccsc2)cc1` [Compound 90, 6-(2-(Thiophen-3-yl)-3-(4-methylthiophenyl)acrylamido)-N-hydroxy hexanamide], in assay [1] (setting [6]), the GI50 amounted to 0.1 µM, the LC50 was determined as 30 µM and the IC (TGI) stood at 5 µM. Also, in assay [2] (U-251, U251, 48 hours, MTT), the GI50 came to 0.8 µM, the LC50 (concentration giving 50% net cell kill relative to the time-zero cell count) was found to be 82 µM and the IC (TGI) was found to be 6.1 µM. Moreover, in assay [3] (HCT-116, HCT116, 48 hours, MTT), the GI50 is 3 µM, the CC50 is above 100 µM and the IC (TGI) was 6 µM. Also, in assay [4], the “HDAC inhibition % (1 μM)” value worked out at 78.2%, the “HDAC inhibition % (10 μM)” value is 98.9% and the 50% inhibitory concentration (IC50) amounted to 0.04 µM. The GI50 in assay [5] (mean over cell lines) stood at 1.3 µM.

Regarding `COc1cc(/C=C(/C(=O)NCCCCCC(=O)NO)c2ccc(F)cc2)ccc1F` [Compound 91, 6-(2-(4-Fluorophenyl)-3-(4-fluoro-3-methoxyphenyl)acrylamido)-N-hydroxy hexanamide], in assay [1] (setting [6]), the concentration for 50% growth inhibition (GI50) was determined as 46 µM, the LC50 was above 100 µM and the IC (TGI) was above 100 µM. In addition, in assay [2] (U-251, U251, 48 hours, MTT), the GI50 was 2 µM, the LC50 (concentration giving 50% net cell kill relative to the time-zero cell count) was 92 µM and the IC (TGI) stood at 30 µM. Besides, in assay [3] (HCT-116, HCT116, 48 hours, MTT), the GI50 came to 19 µM, the CC50 was above 100 µM and the IC (TGI) was above 100 µM. In assay [4], the “HDAC inhibition % (1 μM)” value is 80.8% and the “HDAC inhibition % (10 μM)” value worked out at 97.3%. Further, the concentration for 50% growth inhibition (GI50) in assay [5] (mean over cell lines) worked out at 22.3 µM.

Consider `CSc1ccc(/C=C(/C(=O)NCCCCCC(=O)NO)c2ccccc2Cl)cc1` [Compound 95, 6-(2-(2-Chlorophenyl)-3-(4-methylthiophenyl)acrylamido)-N-hydroxy hexanamide], for which, in assay [1] (setting [6]), the GI50 came out at 6 µM, the LC50 worked out at 72 µM and the IC (TGI) came out at 40 µM. For the same compound, in assay [2] (U-251, U251, 48 hours, MTT), the GI50 was 0.1 µM, the LC50 (concentration giving 50% net cell kill relative to the time-zero cell count) is 64 µM and the IC (TGI) was determined as 11 µM. In assay [3] (HCT-116, HCT116, 48 hours, MTT), the GI50 is 3 µM, the CC50 is 66 µM and the IC (TGI) stood at 14 µM. Besides, in assay [4], the “HDAC inhibition % (1 μM)” value came out at 60.8%, the “HDAC inhibition % (10 μM)” value is given as 92.0% and half-maximal inhibition (IC50) required 0.01 µM. Further, the GI50 in assay [5] (mean over cell lines) stood at 3 µM.

Consider `CSc1ccc(/C=C(/C(=O)NCCCCCC(=O)NO)c2ccc(C)cc2)cc1` [Compound 96, 6-(2-(4-Methylphenyl)-3-(4-methylthiophenyl)acrylamido)-N-hydroxy hexanamide], for which, in assay [1] (NCI-H460, 48 h), the 50% growth inhibitory concentration (GI50) stood at 8 µM, the LC50 is 60 µM and the IC (TGI) worked out at 21 µM. In assay [2] (U-251, 48 h), the GI50 was 8 µM, the LC50 (concentration giving 50% net cell kill relative to the time-zero cell count) was determined as 60 µM and the IC (TGI) was determined as 22 µM. Further, in assay [3] (HCT-116, 48 h), the GI50 is 6 µM, the CC50 is above 100 µM and the IC (TGI) came out at 27 µM. Also, in assay [4], the “HDAC inhibition % (1 μM)” value was 84.1%, the “HDAC inhibition % (10 μM)” value was 98.5% and inhibition was half-maximal at 0.01 µM (IC50). Besides, the GI50 in assay [5] worked out at 7.3 µM.
